Assay results reported in patent publication US12528790B2, “Amide derivative having antiviral activity” (Shionogi & Co., Ltd., priority 2020, dated 2026).
Read-outs that look alike come from different tables or passages of the source.

Legend:
[1] = tested on: RSV B (Wash/18537 strain); test: In vitro CPE (CytoPathic Effect) inhibition effect evaluation test, RSV type B; format: cell-based
How it was run: (§1)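 EC50 is the concentration giving 50% inhibition of virus-induced cytopathic effect, fitted by nonlinear regression from CellTiter-Glo 2.0 viability. Compounds in 3-fold series were co-incubated at 37 °C with HEp-2 cells and RSV: A2 strain for 4 days, B (Wash/18537) for 5 days; uninfected wells served as control.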

RSV A2 strain = test: In vitro CPE (CytoPathic Effect) inhibition effect evaluation test, RSV type A; format: cell-based
How it was run: as §1

[2] = human respiratory syncytial virus, inhibitory effect against RSV type B, CPE inhibition, read-out: EC50
[3] = human respiratory syncytial virus, inhibitory effect against RSV type A (RSV A2 strain), HEp-2 cells, CPE inhibition, read-out: EC50
[4] = inhibitory effect against RSV type B, CPE inhibition, read-out: EC50
[5] = inhibitory effect against RSV type A (RSV A2 strain), HEp-2 cells, CPE inhibition, read-out: EC50
[6] = human respiratory syncytial virus, HEp-2, 120 h, HEp-2 cells, RSV B (Wash/18537 strain), 5 days, CellTiter-Glo, read-out: EC50, inhibitory effect against RSV type B (CPE inhibition)
[7] = human respiratory syncytial virus, HEp-2, 96 h, read-out: EC50, inhibitory effect against RSV type A (CPE inhibition)

| SMILES | EC50 [1, 2] [nM] | EC50 (RSV A2 strain; [3]) [nM] | also measured |
| --- | --- | --- | --- |
| CC(F)(F)c1nc(N2CC3(CCCCC3)c3cc(OC4CCN(C5CC(F)(F)C5)CC4)ccc32)ncc1C(=O)NC1(C(=O)O)C2CC3CC(C2)CC1C3 (stereo not drawn) [Compound I-400] | 10 to 100 | < 10 |  |
| CN1CCN(CCOc2ccc3c(c2)C2(CCOCC2)CN3c2ncc(C(=O)NC3(C(=O)O)C4CC5CC(C4)CC3C5)c(C(F)(F)F)n2)CC1 (stereo not drawn) [Compound I-204] | 10 to 100 | < 10 |  |
| CC(F)(F)c1nc(-c2cn(C3CCOCC3)c3cc(OC4CC(N5CC(F)(F)C5)C4)ccc23)ncc1C(=O)NC1(C(=O)O)C2CC3CC(C2)CC1C3 (single isomer, unassigned) [Compound I-621] | < 10 | < 10 |  |
| N#C[C@]12CC3C[C@H](C1)[C@](NC(=O)c1cnc(N4CC5(CCOCC5)c5cc(OC6CCN(c7ncccn7)CC6)ccc54)nc1C(F)(F)F)(C(=O)O)[C@@H](C3)C2 [Compound I-218] | < 10 | < 10 |  |
| O=C(NC1(C(=O)O)C2CC3CC(C2)CC1C3)c1ccc(-c2cn(C3CCC(F)(F)CC3)c3cc(O[C@H]4CC[C@@H](N5CC(F)(F)C5)CC4)ccc23)nc1C(F)(F)F (stereo partly drawn) [Compound I-514] | 10 to 100 | < 10 |  |
| O=C(NC1(C(=O)O)C2CC3CC(C2)CC1C3)c1cnc(-c2cn(C3CCC(F)CC3)c3cc(O[C@H]4CC[C@H](N5CC(F)(F)C5)CC4)ccc23)nc1C(F)(F)F (single isomer, unassigned) [Compound I-509] | < 10 | < 10 |  |
| O=C(NC1(C(=O)O)CCCCC1)c1cnc(N2CCc3cc(OCCc4ccccc4)ccc32)nc1C(F)(F)F [Compound I-4] | 100 to 5000 | 10 to 100 |  |
| COC[C@@H](C)n1cc(-c2ncc(C(=O)NC3(C(=O)O)C4CC5CC(C4)CC3C5)c(C(F)(F)F)n2)c2ccc(OC3CCN(CC(C)(F)F)CC3)cc21 (stereo partly drawn) [Compound I-576] | < 10 | < 10 |  |
| CC(F)(F)c1nc(N2CC3(CC3)c3cc(O[C@H]4CC[C@H](N5CC(F)(F)C5)CC4)ccc32)ncc1C(=O)NC1(C(=O)O)C2CC3CC(C2)CC1C3 (stereo partly drawn) [Compound I-597] | < 10 | < 10 |  |
| CC(F)(F)c1nc(N2CC3(CCOCC3)c3cc(OC4CCN(CCC(F)(F)F)CC4)ccc32)ncc1C(=O)NC1(C(=O)O)C2CC3CC(C2)CC1C3 (stereo not drawn) [Compound I-529] | < 10 | < 10 |  |
| CC(F)(F)c1nc(N2CC3(CC3)c3cc(OC4CCN(CC(F)(F)F)CC4)ccc32)ncc1C(=O)NC1(C(=O)O)C2CC3CC(C2)CC1C3 (stereo not drawn) [Compound I-604] | < 10 | < 10 |  |
| O=C(NC1(C(=O)O)C2CC3CC(C2)CC1C3)c1ccc(-c2cn(C3CCC(F)(F)CC3)c3cc(O[C@H]4CC[C@H](N5CC(F)(F)C5)CC4)ccc23)nc1C(F)(F)F (stereo partly drawn) [Compound I-452] | < 10 | < 10 |  |
| O=C(NC1(C(=O)O)C2CC3CC(C2)CC1C3)c1cnc(-c2cn(C3CCC(F)(F)CC3)c3cc(OC4CCN(c5ncc(F)cn5)CC4)ccc23)nc1C(F)(F)F (stereo not drawn) [Compound I-237] | < 10 | < 10 |  |
| O=C(N[C@]1(C(=O)O)[C@@H]2CC3C[C@H]1C[C@@](F)(C3)C2)c1cnc(-c2cn(C3CCC(F)(F)CC3)c3cc(O[C@H]4CC[C@H](N5CC(F)(F)C5)CC4)ccc23)nc1C(F)(F)F [Compound I-479] | < 10 | < 10 |  |
| O=C(NC1(C(=O)O)C2CC3CC(C2)CC1C3)c1cnc(N2CC3(CCCCC3)c3cc(O[C@@H]4CCN(c5ncc(F)cn5)C4)ccc32)nc1C(F)(F)F (stereo partly drawn) [Compound I-525] | < 10 | < 10 |  |
| CCC(CC)n1cc(-c2ncc(C(=O)NC3(C(=O)O)C4CC5CC(C4)CC3C5)c(C(F)(F)F)n2)c2ccc(O[C@H]3CC[C@H](N4CC(F)(F)C4)CC3)cc21 (stereo partly drawn) [Compound I-496] | < 10 | < 10 |  |
| CC(F)(F)c1nc(N2CC3(CCOCC3)c3cc(OC4CCC(N5CCC(F)(F)C5)CC4)ccc32)ncc1C(=O)NC1(C(=O)O)C2CC3CC(C2)CC1C3 (stereo not drawn) [Compound I-541] |  |  | EC50 [1, 4]: < 10 nM; EC50 (RSV A2 strain; [5]): < 10 nM |
| O=C(NC1(C(=O)O)C2CC3CC(C2)CC1C3)c1cnc(-c2cn(C3CCC(F)(F)CC3)c3cc(O[C@H]4CC[C@H](N5CC(F)(F)C5)CC4)ccc23)nc1C(F)(F)F (stereo partly drawn) [Compound I-545] | < 10 | < 10 |  |
| NC(=O)C1(NC(=O)c2cnc(N3CC4(CCOCC4)c4cc(OC5CCN(c6ncccn6)CC5)ccc43)nc2C(F)(F)F)C2CC3CC(C2)CC1C3 (stereo not drawn) [Compound I-135] | 10 to 100 | < 10 |  |
| O=C(NC1(C(=O)O)C2CC3CC(C2)CC1C3)c1cnc(N2CC3(CCOCC3)c3cc(OC4CCN(c5ncccn5)CC4)ccc32)nc1C(F)(F)F (stereo not drawn) [Compound I-82] |  |  | EC50 [1, 6]: 0.34 nM; EC50 (RSV A2 strain; [7]): 0.27 nM |
| O=C(NC1(C(=O)O)C2CC3CC(C2)CC1C3)c1cnc(N2CC3(CCCCC3)c3cc(OC4CCN(C5CSC5)CC4)ccc32)nc1C(F)(F)F (stereo not drawn) [Compound I-485] | 10 to 100 | < 10 |  |

| SMILES | EC50 [1, 2] [nM] | EC50 (RSV A2 strain; [3]) [nM] | also measured |
| --- | --- | --- | --- |
| COCCCOc1ccc2c(c1)CCN2c1ncc(C(=O)NC2(C(=O)O)CCCCC2)c(C(F)(F)F)n1 [Compound I-7] | 100 to 5000 | 10 to 100 |  |
| COC[C@@H](C)n1cc(-c2ncc(C(=O)NC3(C(=O)O)C4CC5CC(C4)CC3C5)c(C(F)(F)F)n2)c2ccc(O[C@H]3CC[C@H](N4CC(F)(F)C4)CC3)cc21 (stereo partly drawn) [Compound I-507] | < 10 | < 10 |  |
| O=C(NC1(C(=O)O)C2CC3CC(C2)CC1C3)c1cnc(N2CC3(CCCCC3)c3cc(OC4CCN(CC(F)(F)F)C4)ccc32)nc1C(F)(F)F (stereo not drawn) [Compound I-517] | 10 to 100 | < 10 |  |
| CCC(CC)n1cc(-c2ncc(C(=O)NC3(C(=O)O)C4CC5CC(C4)CC3C5)c(C(C)(F)F)n2)c2ccc(O[C@H]3CC[C@H](N4CC(F)(F)C4)CC3)cc21 (stereo partly drawn) [Compound I-570] |  |  | EC50 [1, 6]: 2.1 nM; EC50 (RSV A2 strain; [7]): 0.7 nM |
| O=C(NC1(C(=O)O)C2CC3CC(C2)CC1C3)c1cnc(N2CC3(CCOCC3)c3cc(OC4CCS(=O)(=O)CC4)ccc32)nc1C(F)(F)F (stereo not drawn) [Compound I-203] | < 10 | < 10 |  |
| O=C(NC1(C(=O)O)C2CC3CC(C2)CC1C3)c1cnc(-c2cn(C3CCC4(CC3)COC4)c3cc(O[C@H]4CC[C@H](N5CC(F)(F)C5)CC4)ccc23)nc1C(F)(F)F (stereo partly drawn) [Compound I-498] | < 10 | < 10 |  |
| O=C(NC1(C(=O)O)C2CC3CC(C2)CC1C3)c1cnc(-c2cn(C3CCOCC3)c3cc(OC4CCN(c5ncc(F)cn5)CC4)ccc23)nc1C(F)(F)F (stereo not drawn) [Compound I-431] | < 10 | < 10 |  |
| O=C(N[C@@]1(C(=O)O)C2CC3C[C@@H]1C[C@](F)(C3)C2)c1cnc(N2CCc3cc(OCCC4CCOCC4)ccc32)nc1C(F)(F)F [Compound I-155] | 10 to 100 | < 10 |  |
| O=C(NC1(C(=O)O)C2CC3CC(C2)CC1C3)c1cnc(-c2cn(C3CC3)c3cc(O[C@H]4CC[C@H](N5CC(F)(F)C5)CC4)ccc23)nc1C(F)(F)F (stereo partly drawn) [Compound I-497] | < 10 | < 10 |  |
| CC(F)(F)c1nc(N2CC3(CCOCC3)c3cc(O[C@H]4CC[C@H](c5ncc(F)cn5)CC4)ccc32)ncc1C(=O)NC1(C(=O)O)C2CC3CC(C2)CC1C3 (stereo partly drawn) [Compound I-562] | < 10 | < 10 |  |
| Cc1nc(N2CCc3cc(OCCC4CCOCC4)ccc32)nc(C(F)(F)F)c1C(=O)NC1(C(=O)O)CCCCC1 [Compound I-72] | 100 to 5000 | < 10 |  |
| O=C(NC1(C(=O)O)C2CC3CC(C2)CC1C3)c1cnc(N2CC3(CCCCC3)c3cc(O[C@H]4CC[C@H](n5cncn5)CC4)ccc32)nc1C(F)(F)F (stereo partly drawn) [Compound I-501] | < 10 | < 10 |  |
| CC(F)(F)c1nc(N2CC3(CCOCC3)c3cc(O[C@H]4CC[C@@H](N5CC(F)(F)C5)CC4)ccc32)ncc1C(=O)NC1(C(=O)O)C2CC3CC(C2)CC1C3 (stereo partly drawn) [Compound I-586] | < 10 | < 10 |  |
| COCC(C)n1cc(-c2ncc(C(=O)NC3(C(=O)O)C4CC5CC(C4)CC3C5)c(C(C)(F)F)n2)c2ccc(OC3CCN(CC(C)(F)F)CC3)cc21 (stereo not drawn) [Compound I-615] | < 10 | < 10 |  |
| O=C(NC1(C(=O)O)C2CC3CC(C2)CC1C3)c1cnc(N2CC3(CCOCC3)c3cc(O[C@H]4CC[C@H](n5cccn5)CC4)ccc32)nc1C(F)(F)F (stereo partly drawn) [Compound I-193] | < 10 | < 10 |  |
| CC(F)(F)c1nc(N2CC3(CCOCC3)c3cc(OC4CN(CC(F)(F)F)C4)ccc32)ncc1C(=O)NC1(C(=O)O)C2CC3CC(C2)CC1C3 (stereo not drawn) [Compound I-592] | < 10 | < 10 |  |
| CC(F)(F)c1nc(N2CC3(CCOCC3)c3cc(O[C@@H]4CCN(CC(F)(F)F)C4)ccc32)ncc1C(=O)NC1(C(=O)O)C2CC3CC(C2)CC1C3 (stereo partly drawn) [Compound I-561] | < 10 | < 10 |  |
| O=C(NC1(C(=O)O)C2CC3CC(C2)CC1C3)c1cnc(N2CCc3cc(OC4CCN(c5ncccn5)CC4)ccc32)nc1C(F)(F)F (stereo not drawn) [Compound I-45] |  |  | EC50 [1, 4]: < 10 nM; EC50 (RSV A2 strain; [5]): < 10 nM |
| O=C(NC1(C(=O)O)C2CC3CC(C2)CC1C3)c1cnc(-c2cn(-c3ccccn3)c3cc(OC4CCN(c5ncc(F)cn5)CC4)ccc23)nc1C(F)(F)F (stereo not drawn) [Compound I-447] | < 10 | < 10 |  |
| O=C(NC1(C(=O)O)C2CC3CC(C2)CC1C3)c1cnc(N2CC3(CCCCC3)c3cc(OC4CCN(c5ncc(F)cn5)CC4)ncc32)nc1C(F)(F)F (stereo not drawn) [Compound I-558] | < 10 | < 10 |  |
| O=C(NC1(C(=O)O)C2CC3CC(C2)CC1C3)c1ccc(-c2cn(C3CCC(F)(F)CC3)c3cc(OC4CCN(c5ncccn5)CC4)c(F)cc23)nc1C(F)(F)F (stereo not drawn) [Compound I-221] | 100 to 5000 | < 10 |  |
